Target: phiYFP (yellow fluorescent protein from the jellyfish Phialidium sp.) (Phialidium sp. SL-2003, UniProt Q6RYS7)
Assay: fluorescence titration, single site binding model

Work on `I` [iodide] yielded a Kd of 50 ± 2 mM.
